Measured values taken from the supplement of paper PMC11451515.

Tested on: SEM cells
Test: cell viability relative to DMSO control; higher = less cytotoxic
Details: 48 h
Summary of the method: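 Three leukemia lines were tested: NOMO1 and SEM at 500 cells/well and P12-Ichikawa at 1000 cells/well. Each was adapted for at least four passages in each medium and seeded in 5 μl in 1536-well plates, and library compounds in DMSO were pin-dosed from 47 μM to 0.79 nM in 11 threefold steps. After 48 h at 37°C, CellTiter-Glo One luminescence was read. Viability is a percentage relative to DMSO wells on each plate, with cell-free wells as background.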

[1] = HPLM + 10% dialyzed FBS, 0.000781 µM
[2] = HPLM + 10% dialyzed FBS, 0.00234 µM
[3] = HPLM + 10% dialyzed FBS, 0.00702 µM
[4] = HPLM + 10% dialyzed FBS, 0.0211 µM
[5] = HPLM + 10% dialyzed FBS, 0.0632 µM
[6] = HPLM + 10% dialyzed FBS, 0.19 µM
[7] = HPLM + 10% dialyzed FBS, 0.569 µM
[8] = HPLM + 10% dialyzed FBS, 1.71 µM
[9] = HPLM + 10% dialyzed FBS, 5.12 µM
[10] = HPLM + 10% dialyzed FBS, 15.4 µM
[11] = HPLM + 10% dialyzed FBS, 46.1 µM
[12] = RPMI 5 mM glucose + 10% FBS, 0.000781 µM
[13] = RPMI 5 mM glucose + 10% FBS, 0.00234 µM
[14] = RPMI 5 mM glucose + 10% FBS, 0.00702 µM
[15] = RPMI 5 mM glucose + 10% FBS, 0.0211 µM
[16] = RPMI 5 mM glucose + 10% FBS, 0.0632 µM
[17] = RPMI 5 mM glucose + 10% FBS, 0.19 µM
[18] = RPMI 5 mM glucose + 10% FBS, 0.569 µM
[19] = RPMI 5 mM glucose + 10% FBS, 1.71 µM
[20] = RPMI 5 mM glucose + 10% FBS, 5.12 µM
[21] = RPMI 5 mM glucose + 10% FBS, 15.4 µM
[22] = RPMI 5 mM glucose + 10% FBS, 46.1 µM
[23] = RPMI 5 mM glucose + 10% dialyzed FBS, 0.000781 µM
[24] = RPMI 5 mM glucose + 10% dialyzed FBS, 0.00234 µM
[25] = RPMI 5 mM glucose + 10% dialyzed FBS, 0.00702 µM
[26] = RPMI 5 mM glucose + 10% dialyzed FBS, 0.0211 µM
[27] = RPMI 5 mM glucose + 10% dialyzed FBS, 0.0632 µM
[28] = RPMI 5 mM glucose + 10% dialyzed FBS, 0.19 µM
[29] = RPMI 5 mM glucose + 10% dialyzed FBS, 0.569 µM
[30] = RPMI 5 mM glucose + 10% dialyzed FBS, 1.71 µM
[31] = RPMI 5 mM glucose + 10% dialyzed FBS, 5.12 µM
[32] = RPMI 5 mM glucose + 10% dialyzed FBS, 15.4 µM
[33] = RPMI 5 mM glucose + 10% dialyzed FBS, 46.1 µM

Compound | cell viability [1] [%] | cell viability [2] [%] | cell viability [3] [%] | cell viability [4] [%] | cell viability [5] [%] | cell viability [6] [%] | cell viability [7] [%] | cell viability [8] [%] | cell viability [9] [%] | cell viability [10] [%] | cell viability [11] [%] | cell viability [12] [%] | cell viability [13] [%] | cell viability [14] [%] | cell viability [15] [%] | cell viability [16] [%] | cell viability [17] [%] | cell viability [18] [%] | cell viability [19] [%] | cell viability [20] [%] | cell viability [21] [%] | cell viability [22] [%] | cell viability [23] [%] | cell viability [24] [%] | cell viability [25] [%] | cell viability [26] [%] | cell viability [27] [%] | cell viability [28] [%] | cell viability [29] [%] | cell viability [30] [%] | cell viability [31] [%] | cell viability [32] [%] | cell viability [33] [%]
NC(=O)c1ncn([C@@H]2O[C@H](CO)[C@@H](O)[C@H]2O)c1O | 128 | 118 | 82.8 | 120 | 117 | 117 | 115 | 130 | 118 | 123 | 104 | 112 | 127 | 89.1 | 137 | 131 | 131 | 115 | 118 | 121 | 117 | 114 | 98.7 | 104 | 85.8 | 128 | 121 | 104 | 112 | 115 | 113 | 116 | 113
CN1CCN(CCOc2cc(OC3CCOCC3)c3c(Nc4c(Cl)ccc5c4OCO5)ncnc3c2)CC1 | 106 | 119 | 115 | 118 | 122 | 126 | 113 | 116 | 78.4 | 61.6 | 30.3 | 121 | 120 | 128 | 110 | 128 | 109 | 85.5 | 109 | 62.9 | 34.3 | 19.7 | – | – | – | – | – | – | – | – | – | – | –
CC(C)(O)c1cc2nc(-c3cnc(N)nc3)nc(N3CCOCC3)c2s1 | 122 | 125 | 99.7 | 113 | 106 | 106 | 77.2 | 59.9 | 44.5 | 41 | 38 | 82.9 | 79.1 | 74.3 | 76 | 78.2 | 68.4 | 57.1 | 39.1 | 29.1 | 26.7 | 23.3 | 106 | 113 | 97.7 | 107 | 105 | 94.7 | 81.4 | 52.3 | 48.1 | 47.8 | 37.3
COc1cc(C(=O)NS(=O)(=O)c2ccccc2C)ccc1Cc1cn(C)c2ccc(NC(=O)OC3CCCC3)cc12 | 59.7 | 55.9 | 66.9 | 73.4 | 87.5 | 90 | 80.7 | 70 | 64.4 | 62.6 | 5.13 | 85.4 | 83.3 | 73.3 | 63.4 | 92.4 | 85.2 | 39.6 | 70.5 | 78.9 | 71.3 | 4.48 | 69.7 | 54.8 | 64.2 | 76.6 | 77.9 | 83.2 | 62.4 | 76.5 | 63 | 72.5 | 5.4
CCOc1ccc(Cc2cc([C@@H]3O[C@H](CO)[C@@H](O)[C@H](O)[C@H]3O)ccc2Cl)cc1 | 113 | 108 | 120 | 107 | 126 | 125 | 117 | 121 | 115 | 128 | 113 | 102 | 110 | 110 | 89.5 | 106 | 124 | 112 | 121 | 121 | 115 | 118 | 116 | 104 | 128 | 85.6 | 117 | 124 | 129 | 122 | 119 | 117 | 105
COc1cc(CNC(=O)CCCC/C=C/C(C)C)ccc1O | 88.8 | 92.6 | 104 | 99 | 101 | 96.6 | 79.7 | 36.7 | 32.9 | 29.7 | 18.6 | 110 | 110 | 121 | 123 | 107 | 111 | 56.7 | 19.3 | 21.4 | 15.9 | 12.5 | 94.3 | 93.2 | 98.7 | 101 | 94.6 | 93.8 | 86.6 | 23.6 | 27.2 | 19 | 15.4
NC(=O)NO | 83 | 79.5 | 89.4 | 85.6 | 93.5 | 96.1 | 80.1 | 75.2 | 31.6 | 13.8 | 2.15 | 99.3 | 89.3 | 96.1 | 94.8 | 100 | 93 | 103 | 86.1 | 37.2 | 7.56 | 1.61 | 77.9 | 79.6 | 93 | 88.4 | 96.2 | 84.4 | 95.5 | 87 | 32.3 | 5.86 | 1.96
C[C@H]1O[C@H](C[C@H](O)[C@@H]1O)O[C@H]2[C@@H](O)C[C@@H](O[C@@H]2C)O[C@H]3[C@@H](O)C[C@@H](O[C@@H]3C)O[C@H]4CC[C@@]5(C)[C@H](CC[C@@H]6[C@@H]5C[C@@H](O)[C@]7(C)[C@H](CC[C@]67O)C/8=C/C(=O)OC8)C4 | 117 | 106 | 122 | 123 | 30.4 | 15.2 | 11 | 7.74 | 7.71 | 8.32 | 6.4 | – | – | – | – | – | – | – | – | – | – | – | – | – | – | – | – | – | – | – | – | – | –
CCOC1=CC=CC=C1N\2C(=O)C3=C(C=CC=C3)\N=C2C(C)N4CCN(CC4)C(=O)COC5=CC=C(Cl)C=C5 (stereo not given) | 112 | 111 | 111 | 123 | 114 | 115 | 104 | 26.1 | 9.76 | 5.2 | 3.06 | 124 | 115 | 108 | 101 | 110 | 114 | 28 | 6.16 | 4.12 | 3.03 | 1.64 | 113 | 131 | 119 | 116 | 125 | 136 | 68.6 | 9.93 | 6.21 | 4.51 | 2.93
NC(=O)OCC(COC(N)=O)c1ccccc1 | 91 | 99.6 | 102 | 87.3 | 101 | 86.1 | 103 | 104 | 92.8 | 91 | 90.6 | 119 | 121 | 104 | 119 | 113 | 113 | 102 | 115 | 99.8 | 117 | 105 | 99.7 | 107 | 99.4 | 115 | 111 | 99.9 | 109 | 99 | 97.9 | 101 | 105
Cc1onc(-c2ccccc2)c1C(=O)N[C@@H]1C(=O)N2[C@@H]1SC(C)(C)[C@@H]2C(=O)[O-].[Na+] | 85.9 | 75.7 | 87.2 | 84 | 86.5 | 75.3 | 89.6 | 93.4 | 85.2 | 82.1 | 80.2 | 109 | 94.2 | 105 | 114 | 108 | 109 | 114 | 86.4 | 102 | 132 | 103 | 115 | 104 | 111 | 113 | 133 | 112 | 118 | 107 | 111 | 108 | 100
Cc1nc(Nc2n[nH]c3c2CN(C(=O)N[C@H](CN(C)C)c2ccccc2)C3(C)C)c2sccc2n1 | 72.2 | 70.6 | 51.6 | 66.4 | 52.6 | 48.5 | 36.6 | 23.8 | 15.7 | 2.46 | 4.3 | 91.2 | 85.9 | 62.8 | 79.1 | 60.3 | 47 | 46 | 25.7 | 15.2 | 1.75 | 3.09 | 82.2 | 73 | 70.1 | 82.1 | 64.2 | 55.1 | 50 | 30.4 | 21.4 | 2.4 | 3.71
O.O.CCN1CCN(C(=O)N[C@H](C(=O)N[C@H]2[C@@H]3SC\C(=C(/N3C2=O)C(O)=O)CSC4=NN=N[N]4C)C5=CC=C(O)C=C5)C(=O)C1=O | 81 | 81.3 | 90.4 | 20.6 | 107 | 95.4 | 104 | 101 | 103 | 98.6 | 105 | 99.1 | 75.9 | 99.4 | 15.1 | 95.3 | 104 | 107 | 94.5 | 90.9 | 117 | 98.8 | 88.1 | 80.5 | 97.6 | 17.3 | 91.6 | 106 | 101 | 99.7 | 104 | 93.4 | 103
OC[C@H]1O[C@@H]2[C@@H](OC\3=N\C(=N)\C=C/[N@@]23)[C@@H]1O | 94 | 107 | 93.1 | 97.8 | 84.4 | 47.9 | 34.6 | 28.1 | 21.9 | 16.1 | 14.5 | 105 | 116 | 102 | 117 | 87 | 46.9 | 41.9 | 23.3 | 16 | 13.8 | 13.5 | 85.3 | 86.2 | 99.8 | 81.1 | 59.8 | 37.8 | 22.4 | 14.8 | 13 | 10.7 | 8.17
CCN1CCCC1CNC(=O)c1cc([S+](N)(=O)[O-])ccc1OC (stereo not given) | 90 | 88.7 | 97.6 | 87.3 | 102 | 90.1 | 102 | 107 | 108 | 69.1 | 102 | 96.8 | 102 | 112 | 92.4 | 105 | 111 | 106 | 112 | 102 | 66 | 97.8 | 102 | 91.6 | 110 | 113 | 118 | 122 | 107 | 123 | 133 | 59.1 | 121
CCN1CCN(C(=O)Cc2ccc(Nc3ncc(F)c(Nc4ccc(C(=O)Nc5ccccc5Cl)cc4)n3)cc2)CC1 | 79.1 | 90.8 | 97.2 | 111 | 109 | 107 | 108 | 83.1 | 61.2 | 33.6 | 27.6 | 81.8 | 108 | 103 | 108 | 118 | 105 | 101 | 82.4 | 58.8 | 11.5 | 8.62 | 80.4 | 89.3 | 111 | 97.6 | 116 | 118 | 101 | 81.6 | 54.4 | 19.1 | 14.6
